In patent publication US20250360167A1 (Keryx Biopharmaceuticals, Inc., priority 2013, published 2025):

Tested on: ferritin
Test: Phase 3 trial (Example 1): ferritin
Type: in vivo, human
Set-up: Ferritin, Mean / Ferritin, Median / Ferritin, Change from Baseline, Mean / Ferritin, Change from Baseline, Median / Ferritin, LS Mean: unit not given here
Conditions: for Ferritin, Mean / Ferritin, Median / Ferritin, LS Mean / Ferritin, Change from Baseline, Mean / Ferritin, Change from Baseline, Median / Ferritin, Treatment Differences, LS Mean (KRX-0502) − LS Mean (control), (SE): Table 15
Source text: Iron studies including serum iron, ferritin, TSAT, and total iron-binding capacity were done at Screening (Visit 0); at the Randomization Visit (Visit 4); at Visits 7 (Week 4), 9 (Week 8), 11 (Week 12), 12 (Week 16), 13 (Week 20), 14 (Week 24), 15 (Week 28), 16 (Week 32), 17 (Week 36), 18 (Week 40), 19 (Week 44), 20 (Week 48), and 21 (Week 52) of the 52-week Safety Assessment Period; and at Visit 25 (Week 56) of the Efficacy Assessment Period.
Change from baseline in ferritin at Week 52 as compared to baseline (Visit 4). This variable will be analyzed using LOCF methodology. ANCOVA will be employed. The model will include treatment (fixed effect), and baseline (covariate). A sensitivity analysis will be performed using MMRM method.
• 1. Change in serum calcium concentration at Weeks 12, 24, 36, 48, and 52 as compared to baseline (Visit 4). This variable will be analyzed using LOCF methodology. ANCOVA will be employed. The model will include treatment (fixed effect), and baseline (covariate). • 2. Change in ferritin, and TSAT at Weeks 12, 24, 36 and 48 as compared to baseline (Visit 4). This variable will be analyzed using LOCF methodology. ANCOVA will be employed. The model will include treatment (fixed effect), and baseline (covariate). • 3. Change in serum iron and TIBC at Weeks 12, 24, 36, 48, and 52 as compared to baseline (Visit 4). This variable will be analyzed using LOCF methodology. ANCOVA will be employed. The model will include treatment (fixed effect), and baseline (covariate). • 4. Change in Ca x P product at Weeks 12, 24, 36, 48, and 52 as compared to baseline (Visit 4). This variable will be analyzed using LOCF methodology. ANCOVA will be employed. The model will include treatment (fixed effect), and baseline (covariate). • 5. Change in iPTH at Weeks 12, 36, 52, and 56 as compared to baseline (Visit 4). This variable will be analyzed using LOCF methodology. ANCOVA will be employed. The model will include treatment (fixed effect), and baseline (covariate). • 6. Change in serum […], vitamin A, vitamin B-12, vitamin E, vitamin K and folic acid at Weeks 12, 36, and 52 as compared to baseline (Visit 4). This variable will be analyzed using LOCF methodology. ANCOVA will be employed. The model will include treatment (fixed effect), and baseline (covariate). • 7. Change in serum bicarbonate concentration at Weeks 12, 36, and 52 as compared to baseline (Visit 4). This variable will be analyzed using LOCF methodology. ANCOVA will be employed. The model will include treatment (fixed effect), and baseline (covariate). • 8. Change in IV iron intake at Weeks 12, 24, 36, 48, and 52 as compared to baseline (Visit 4). This variable will be analyzed using LOCF methodology. ANCOVA will be employed. The model will include treatment (fixed effect), and baseline (covariate). • 9. Change in the use of EPO (ESA) administered at Weeks 12, 24, 36, 48, and 52 as compared to baseline (Visit 4). This variable will be analyzed using LOCF methodology. ANCOVA will be employed. The model will include treatment (fixed effect), and baseline (covariate). • 10. Change in the use of Vitamin D supplementation (and its analogs) and Sensipar (cinacalcet) at Weeks 12, 24, 36, 48, and 52 as compared to baseline (Visit 4). This variable will be analyzed using LOCF methodology. ANCOVA will be employed. The model will include treatment (fixed effect), and baseline (covariate). • 11. Change in LDL, HDL, and triglycerides at Weeks 12, 36, and 52 as compared to baseline (Visit 4). This variable will be analyzed using LOCF methodology. ANCOVA will be employed. The model will include treatment (fixed effect), and baseline (covariate).

[1] = Day 0 Baseline, Safety Assessment Period

iron (+3), x (1, 2, 3-propanetricarboxylic acid, 2-hydroxy-), y (H2O) [KRX-0502]
Mean Ferritin, LS Mean Difference from Active Control Group at Week 52 (ANCOVA, Table C): 286 ng/mL
Mean Ferritin (Baseline (Day 0), Table C): 595 ng/mL
Ferritin, Mean [1]: 595.00
Ferritin, Median [1]: 587.00
Mean Ferritin, Change from Baseline at Week 52 (Table C): 302 ng/mL
Ferritin, LS Mean (Week 12, ANCOVA): 757.75
Mean Ferritin (Week 12, LOCF, Table C): 751 ng/mL
Ferritin, Change from Baseline, Mean (Week 12): 158.88
Ferritin, Change from Baseline, Median (Week 12): 123.00
Ferritin, Mean (Week 12): 751.19
Ferritin, Median (Week 12): 718.00
Ferritin, Treatment Differences, LS Mean (KRX-0502) − LS Mean (control), (SE) (Week 12): 112.95 (29.36)
Ferritin, LS Mean (Week 24, ANCOVA): 852.52
Mean Ferritin (Week 24, LOCF, Table C): 847 ng/mL
Ferritin, Change from Baseline, Mean (Week 24): 252.49
Ferritin, Change from Baseline, Median (Week 24): 220.00
Ferritin, Mean (Week 24): 846.90
Ferritin, Median (Week 24): 830.00
Ferritin, Treatment Differences, LS Mean (KRX-0502) − LS Mean (control), (SE) (Week 24): 204.43 (32.84)
Ferritin, LS Mean (Week 36, ANCOVA): 868.11
Mean Ferritin (Week 36, LOCF, Table C): 863 ng/mL
Ferritin, Change from Baseline, Mean (Week 36): 268.77
Ferritin, Change from Baseline, Median (Week 36): 223.00
Ferritin, Mean (Week 36): 863.18
Ferritin, Median (Week 36): 818.00
Ferritin, Treatment Differences, LS Mean (KRX-0502) − LS Mean (control), (SE) (Week 36): 241.24 (38.27)
Ferritin, LS Mean (Week 48, ANCOVA): 887.41
Mean Ferritin (Week 48, LOCF, Table C): 882 ng/mL
Ferritin, Change from Baseline, Mean (Week 48): 287.69
Ferritin, Change from Baseline, Median (Week 48): 233.00
Ferritin, Mean (Week 48): 882.10
Ferritin, Median (Week 48): 850.00
Ferritin, Treatment Differences, LS Mean (KRX-0502) − LS Mean (control), (SE) (Week 48): 270.56 (39.85)
Ferritin, LS Mean (Week 52, ANCOVA): 901.95
Mean Ferritin (Week 52, LOCF, Table C): 897 ng/mL
Ferritin, Change from Baseline, Mean (Week 52): 302.11
Ferritin, Change from Baseline, Median (Week 52): 224.00
Ferritin, Mean (Week 52): 897.12
Ferritin, Median (Week 52): 858.00
Ferritin, Treatment Differences, LS Mean (KRX-0502) − LS Mean (control), (SE) (Week 52): 285.65 (42.76)
Mean Ferritin, % Change from Baseline (Week 52, Table C): 50.8%
